Target: T1, human recombinant LPA2 (Homo sapiens, UniProt Q9HBW0)
T1 construct: expressed in transfected cells; host or cells: CHO (CHO-hLPA2 cell line)
Assay: FLIPR calcium mobilization assay, LPA2 antagonism in CHO-hLPA2 cells
Format: cell-based
Settings: human recombinant LPA2 in CHO cells, LPA EC80 stimulation, 30 min pre-incubation; read-out: LPA2 IC50
Protocol: The effectiveness of compounds of the present invention as LPA2 antagonist can be determined at the human recombinant LPA2 expressed in CHO cells, using a FLIPR assay in 384 well format.
CHO-hLPA2 cell lines are cultured in a humidified incubator at 5% CO2 in DMEM/F-12 (1:1) MIXTURE with 2 mM Glutamax, supplemented with 10% of Foetal Bovine Serum, 1 mM Sodium Pyruvate, 11 mM Hepes and 1× Penicillin/Streptomycin. CHO hLPA2 cells are seeded into black walled clear-bottom 384-well plates (#781091, Greiner Bio-One GmbH) at a density of 7,500 cells per well in 50 μl culture media and grown overnight in a 37° C. humidified CO2-incubator. Serial dilutions (1:3 or 1:4, 11 points CRC) of compounds are performed in 100% DMSO at 200× the final concentration. The compounds are diluted 1:50 prior to the experiment with Assay Buffer (20 mM HEPES, 145 mM NaCl, 5 mM KCl, 5.5 mM glucose, 1 mM MgCl2 and 2 mM CaCl2, pH 7.4 containing 0.01% Pluronic F-127) to obtain a solution corresponding to […] the final concentration in the assay (4×, 2% DMSO). The final concentration of DMSO in the assay will be 0.5% in each well. Medium is removed by aspiration and cells are then incubated with 30 μl of a loading solution containing 5 μM of the cytoplasmic Ca2+ indicator Cal-520 AM in Assay Buffer containing 2.5 mM probenecid for 30 min at 37° C. incubator (cell loading). The loaded cell plates are transferred into the FLIPR instrument and calcium responses are monitored during the on-line addition protocols. For testing of compounds, after the cell loading, 10 μl/well of 4× antagonists' solution was added onto the cells. After 30 min pre-incubation (at 37° C.), 10 μl/well of 5× concentrated LPA EC80 was added and Ca2+ mobilization responses was followed during the on-line addition protocol. Intracellular peak fluorescence values subtracted by baseline fluorescence are exported and analysed to determine IC50 values, respectively. The calcium response is expressed as percentage of the maximal inhibition of the EC80 agonist response.
The raw data (peak height expressed as relative fluorescence units) are normalized and transformed into “percent of inhibition”. Curve fitting and pIC50 (−Log IC50) estimations are carried out using a four-parameter logistic model using XLfit Software.

T1 sequence (Q9HBW0 whole entry): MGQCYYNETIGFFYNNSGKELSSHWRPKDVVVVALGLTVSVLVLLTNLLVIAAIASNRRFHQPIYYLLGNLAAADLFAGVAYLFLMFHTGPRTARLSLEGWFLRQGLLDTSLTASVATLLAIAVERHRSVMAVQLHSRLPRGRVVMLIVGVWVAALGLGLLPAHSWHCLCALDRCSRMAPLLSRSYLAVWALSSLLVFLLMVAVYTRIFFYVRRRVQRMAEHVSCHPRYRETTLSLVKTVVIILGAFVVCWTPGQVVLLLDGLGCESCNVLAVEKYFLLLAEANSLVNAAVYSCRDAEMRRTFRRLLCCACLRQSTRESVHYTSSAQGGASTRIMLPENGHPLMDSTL

Row | SMILES | IC50
1 | COC(=O)Nc1nc(C)c(S(=O)(=O)N2CCN(C[C@H](C)Nc3nc(Cl)nc4c(C(F)(F)F)csc34)CC2)s1 [Example 32, methyl N-[5-({4-[(2S)-2-{[2-chloro-7-(trifluoromethyl)thieno[3,2-d]pyrimidin-4-yl]amino}propyl]piperazin-1-yl}sulfonyl)-4-methyl-1,3-thiazol-2-yl]carbamate] | < 1000 nM
2 | COC(=O)Nc1nc(C)c(S(=O)(=O)N2CCN(C[C@H](C)Nc3nc(C4CC4)nc4c(C(F)(F)F)csc34)CC2)s1 [Example 34, methyl N-[5-({4-[(2S)-2-{[2-cyclopropyl-7-(trifluoromethyl)thieno[3,2-d]pyrimidin-4-yl]amino}propyl]piperazin-1-yl}sulfonyl)-4-methyl-1,3-thiazol-2-yl]carbamate] | < 10 nM
3 | CCc1nc(N[C@@H](C)CN2CCN(S(=O)(=O)c3sc(NC(C)=O)nc3C)CC2)c2scc(C)c2n1 [Example 36, N-[5-({4-[(2S)-2-({2-ethyl-7-methylthieno[3,2-d]pyrimidin-4-yl}amino)propyl]piperazin-1-yl}sulfonyl)-4-methyl-1,3-thiazol-2-yl]acetamide] | < 1000 nM
4 | COC(=O)Nc1nc(C)c(S(=O)(=O)N2CCN(C[C@H](C)Nc3nc(C)nc4c(C)csc34)CC2)s1 [Example 37, Methyl N-[5-({4-[(2S)-2-({2,7-dimethylthieno[3,2-d]pyrimidin-4-yl}amino)propyl]piperazin-1-yl}sulfonyl)-4-methyl-1,3-thiazol-2-yl]carbamate] | < 1000 nM

Next, values leading:

Row | IC50 | SMILES
5 | 10 to 100 nM | COC(=O)Nc1nc(C)c(S(=O)(=O)N2CCN(C[C@H](C)Nc3nc(C4CC4)nc4c(C)csc34)CC2)s1 [Example 31, methyl N-[5-({4-[(2S)-2-({2-cyclopropyl-7-methylthieno[3,2-d]pyrimidin-4-yl}amino)propyl]piperazin-1-yl}sulfonyl)-4-methyl-1,3-thiazol-2-yl]carbamate]
6 | < 1000 nM | Cc1nc(NC(=O)C2CN(C(=O)OC(C)(C)C)C2)sc1S(=O)(=O)N1CCN(C[C@H](C)Nc2ncnc3c(C)csc23)CC1 [Example 33, tert-butyl 3-{[4-methyl-5-({4-[(2S)-2-({7-methylthieno[3,2-d]pyrimidin-4-yl}amino)propyl]piperazin-1-yl}sulfonyl)-1,3-thiazol-2-yl]carbamoyl}azetidine-1-carboxylate]
7 | 10 to 100 nM | CC(=O)Nc1nc(C)c(S(=O)(=O)N2CCN(C[C@H](C)Nc3nc(C4CC4)nc4c(C)csc34)CC2)s1 [Example 35, N-[5-({4-[(2S)-2-({2-cyclopropyl-7-methylthieno[3,2-d]pyrimidin-4-yl}amino)propyl]piperazin-1-yl}sulfonyl)-4-methyl-1,3-thiazol-2-yl]acetamide]
8 | 10 to 100 nM | CCc1nc(N[C@@H](C)CN2CCN(S(=O)(=O)c3sc(NC(=O)OC)nc3C)CC2)c2scc(C)c2n1 [Example 38, methyl N-[5-({4-[(2S)-2-({2-ethyl-7-methylthieno[3,2-d]pyrimidin-4-yl}amino)propyl]piperazin-1-yl}sulfonyl)-4-methyl-1,3-thiazol-2-yl]carbamate]

Same assay, conditions: same in vitro assay as Table 2; read-out: IC50 on LPA2 receptor

Row | SMILES | IC50
9 | COC(=O)Nc1nc(C)c(S(=O)(=O)N2CCN(C[C@H](C)Nc3ncnc4c(-c5cccnc5)cn(C)c34)CC2)s1 [comparative Example A, Methyl (S)-(4-methyl-5-((4-(2-((5-methyl-7-(pyridin-3-yl)-5H-pyrrolo[3,2-d]pyrimidin-4-yl)amino)propyl)piperazin-1-yl)sulfonyl)thiazol-2-yl)carbamate, reference compound] | > 2000 nM
